Data reported in patent US11579149B2, “Hippo pathway bioluminescent biosensor” (Queen's University at Kingston, priority 2017, dated 2023).

Tests used:
[1] = test system: LATS kinase activity; assay: LATS-BS under stimuli regulating Hippo signaling (in vitro luciferase assay and live cell luciferase imaging); format: cell-based, human; conditions: cell lysates (luciferase assay) and live cells (BLI)
Description: For live cell imaging, LATS-BS or a pGL3-control vector were transfected into HEK293, MDA-MB-231 or A549 cells. After 48 hours, cells were trypsinized and collected in a black, clear bottomed, 96-well plate. 150 μg/mL D-luciferin (D-Luciferin, Potassium Salt, GoldBio #LUCK-250) in media was added to each well 5-10 min before imaging. Exposure time for images was approximately 3 min/plate. Imaging was performed using a LightTools Research system (Synopsys, Ltd., Mountain View, Calif., USA) dark box and a Hamamatsu ORCA-Flash4.0 V2 digital CMOS camera over the course of 20 minutes to establish optimal peak luciferase activity. The bioluminescence of the regions of interest was analyzed for total emission flux using Image-Pro® Plus software (Media Cybernetics, Inc., Rockville, Md., USA).
Experiments were conducted to further validate the LATS intermolecular biosensor and explore potential applications for its use. The LATS-BS responded to numerous signals reported to modulate Hippo pathway activity, including cell confluency, drugs activating Hippo signaling (Forskolin, PI3K inhibitor, PDK inhibitor, F-IBMX, and 2-deoxy-glucose) and Hippo signaling inhibitors (LPA, EGF, Insulin, S1P, and TPA). The LATS-BS is activated by LATS in various cell lines (e.g., A549, MDA-MB231).
The following compound treatments were used for in vitro luciferase assay and live cells imaging: RAF inhibitor (GW5054, Cayman Chemical, Ann Arbor, Mich., USA), ATR inhibitor (CGK733, Cayman Chemical), PI3K inhibitor 1 (GDC0941, Cayman Chemical), PI3K inhibitor 2 (LY294002, Cayman Chemical), PDK inhibitor (GSK2334470, Cayman Chemical)—10 μM for 4 hours; EGF-100 ng/mL for 1 hour; insulin (Sigma #91077C)—10 μg/ml for 1 hour, F/IBMX (Forskolin, Cayman Chemical/IBMX, Cayman Chemical)—0.1-10 μM for Forskolin and 100 μM for IBMX for 1 hour; L-α-lysophosphatidic acid (LPA) (Sigma #L7260)—0.1-10 μM for 1 hour, sphingosine1-phosphophate (S1P)—1 μM for 1 hour; 12-O-tetradecanoylphorbol-13-acetate (TPA) (#41745; Cell Signaling Technology, Inc., Danvers, Mass., USA)—5 nM for 1 hour; 2-deoxy glucose (#D8375, Sigma-Aldrich Canada Co., Oakville, Ontario, Canada)—25 mM for 1 hour.

[2] = test system: LATS kinase activity; assay: LATS-BS validation in transfected HEK293 cells (luciferase assay / western blot); format: cell-based, human; conditions: HEK293 co-transfected with LATS-BS and MST2, 10 μM LPA for 1 hour before collection
Description: In a validation study, LATS-BS was transfected alone or together with LATS2 or/and MST2 into HEK293 cells and biosensor activity or NLuc-YAP15-S127 phosphorylation status were determined 48 hours after transfection by luciferase assay or western blot, respectively. As depicted in FIG. 2C, HEK293 cells transfected with LATS-BS alone had low luciferase activity and this was correlated with a low degree of Nluc-YAP15-S127 phosphorylation. Co-transfection of LATS-BS with MST2 was associated with increases in both Nluc-YAP-S127 phosphorylation and luciferase activity, and this effect was suppressed with lysophosphatidic acid (LPA), an inhibitor of the Hippo pathway. For lysophosphatidic acid (LPA) treatment, cells were stimulated with 10 μM LPA for 1 hour before collection (n=3). LATS-BS co-expression with both MST2 and LATS2 was correlated with further increases in Nluc-YAP15-S127 phosphorylation and luciferase activity. Collectively, these observations are consistent with a model where MST2 activates LATS2, which phosphorylates Nluc-YAP15-S127, leading to binding with Cluc-14-3-3 and reconstitution of active luciferase.

Row | Molecule | LATS-BS response to signals modulating Hippo pathway activity [1] | Nluc-YAP-S127 phosphorylation (western blot) [2] | LATS-BS luciferase activity ([2]; n=3)
1 | O=CC[C@@H](O)[C@H](O)[C@H](O)CO [2-deoxy-glucose, 2-deoxy glucose] | responded |  | 
2 | CNc1nc(-c2ccc3c(N)n[nH]c3c2)cc(N2C[C@@H](C(=O)NC3CCCCC3)CC[C@H]2C)n1 [PDK inhibitor] | responded |  | 
3 | CCCCCCCCCCCCC/C=C/[C@@H](O)[C@@H](N)COP(=O)(O)O [S1P, sphingosine1-phosphophate] | responded |  | 
4 | CCCCCCCCCCCCCC(=O)O[C@@H]1[C@@H](C)[C@@]2(O)[C@@H](C=C(CO)C[C@]3(O)C(=O)C(C)=C[C@@H]23)[C@@H]2C(C)(C)[C@]12OC(C)=O [TPA, 12-O-tetradecanoylphorbol-13-acetate] | responded |  | 
5 | EGF: Hippo signaling inhibitor | responded |  | 
6 | Insulin: Hippo signaling inhibitor (Sigma #91077C) | responded |  | 
7 | L-α-lysophosphatidic acid [LPA] | responded | suppressed | suppressed
